Source: ChEMBL document CHEMBL3997846, “Synthesis and activity of nucleoside-based antiprotozoan compounds” (Bioorg Med Chem, 2017)

What was measured:
Trypanosoma cruzi = assay: Antitrypanosomal activity against Trypanosoma cruzi Tulahuen strain C2C4 amastigote forms harboring LacZ infected in rat L6 cells after 96 hrs by CPRG/Nonidet reagent based photometric method; format: functional, cell-based; conditions: Tulahuen strain C2C4, L6, 96 h
[1] = Selectivity index, ratio of IC50 for rat L6 cells to IC50 for Leishmania donovani MHOM/SD/62/ISCL2D axenic amastigotes; format: toxicity; conditions: read-out: Ratio IC50
Leishmania donovani = assay: Antileishmanial activity against Leishmania donovani MHOM/SD/62/ISCL2D axenic amastigotes after 72 hrs by alamar blue assay; format: functional
[2] = Selectivity index, ratio of IC50 for rat L6 cells to IC50 for Trypanosoma cruzi Tulahuen strain C2C4 amastigote forms harboring LacZ infected in rat L6 cells; format: toxicity, cell-based; conditions: read-out: Ratio IC50
[3] = test system: Trypanosoma brucei rhodesiense; assay: Antitrypanosomal activity against bloodstream forms of Trypanosoma brucei rhodesiense STIB900 trypomastigotes after 72 hrs by alamar blue assay; format: functional; conditions: STIB900, 72 h
[4] = Selectivity index, ratio of IC50 for rat L6 cells to IC50 for bloodstream forms of Trypanosoma brucei rhodesiense STIB900 trypomastigotes; format: toxicity; conditions: read-out: Ratio IC50
[5] = Selectivity index, ratio of IC50 for rat L6 cells to IC50 for chloroquine resistant Plasmodium falciparum K1 erythrocytic stage; format: toxicity; conditions: read-out: Ratio IC50
L6 = assay: Cytotoxicity against rat L6 cells assessed as growth inhibition after 72 hrs by alamar blue assay; format: cell-based; conditions: L6, 72 h
Plasmodium falciparum = assay: Antiplasmodial activity against chloroquine resistant Plasmodium falciparum K1 erythrocytic stage assessed as reduction in [3H]hypoxanthine incorporation after 48 hrs by liquid scintillation counting assay; format: functional

SMILES | IC50 (Trypanosoma cruzi) | selectivity ratio [1] | IC50 (Leishmania donovani) | selectivity ratio [2] | IC50 [3] | selectivity ratio [4] | selectivity ratio [5] | IC50 (L6) | IC50 (Plasmodium falciparum)
CSC[C@H]1O[C@@H](n2cnc3c(N)nc(I)nc32)[C@H](O)[C@@H]1O | 88 µM | 1 | 132 µM | 2 | 5 µM | 27 |  |  | 
C[C@H]1O[C@@H](n2cnc3c(N)nc(Cl)nc32)[C@H](O)[C@@H]1O | 189 µM | 3 | 49 µM | 0.8 | 84 µM | 2 |  |  | 
CNc1ncnc2c1ncn2[C@@H]1O[C@H](C)[C@@H](O)[C@H]1O | 195 µM | < 0.7 | > 380 µM | 1 | 206 µM | 1 |  |  | 
CNc1nc(C#N)nc2c1ncn2[C@@H]1O[C@H](C)[C@@H](O)[C@H]1O | 45 µM | 0.6 | 148 µM | 2 | 111 µM | 0.8 |  |  | 
C[C@H]1O[C@@H](n2cnc3c(N)nc(NN)nc32)[C@H](O)[C@@H]1O | 147 µM | 3 | 73 µM | 1 | 132 µM | 1 |  |  | 
C[C@H]1O[C@@H](n2cnc3c(N)nc(F)nc32)[C@H](O)[C@@H]1O | 7.1 µM | 2 | 0.88 µM | 0.3 | 65 µM | < 0.1 |  |  | 
C[C@H]1O[C@@H](n2cnc3c(N)nc(N=[N+]=[N-])nc32)[C@H](O)[C@@H]1O | 167 µM | 2 | 125 µM | 1 | 137 µM | 1 |  |  | 
CNc1nc(I)nc2c1ncn2[C@@H]1O[C@H](C)[C@@H](O)[C@H]1O | 126 µM | 0.7 | 199 µM | 1 | 49 µM | 3 |  |  | 
C[C@H]1O[C@@H](n2cnc3c(N)nc(N)nc32)[C@H](O)[C@@H]1O | > 340 µM | 7 | 51 µM | < 1 | 224 µM | 2 |  |  | 
CNc1nc(F)nc2c1ncn2[C@@H]1O[C@H](C)[C@@H](O)[C@H]1O | 20 µM | 0.7 | > 353 µM | 12 | 194 µM | 1 |  |  | 
C[C@H]1O[C@@H](n2cnc3c(N)nc(I)nc32)[C@H](O)[C@@H]1O | 120 µM | 0.5 | 208 µM | 0.9 | 27 µM | 4 |  |  | 
C[C@H]1O[C@@H](n2cnc3c(N)nc(C#N)nc32)[C@H](O)[C@@H]1O | 144 µM | 2 | 100 µM | 1 | 79 µM | 2 |  |  | 
CC(=O)O[C@@H]1[C@H](OC(C)=O)[C@@H](C[S+](C)[O-])O[C@H]1n1cnc2c(N)nc(Cl)nc21 (some centres not stated) | 106 µM | < 0.7 | > 230 µM | 2 | 106 µM | 2 | 2 | 168 µM | 106 µM
CNc1ncnc2c1ncn2[C@@H]1O[C@H](CSC)[C@@H](O)[C@H]1O | 191 µM | < 0.5 | > 320 µM | 0.8 | 16 µM | 10 |  |  | 
CSC[C@H]1O[C@@H](n2cnc3c(/N=C/N(C)C)nc(F)nc32)[C@H](O)[C@@H]1O | 114 µM | 0.6 | 2.5 µM | < 0.1 | 62 µM | < 0.1 |  |  | 
CSC[C@H]1O[C@@H](n2cnc3c(N)nc(C#N)nc32)[C@H](O)[C@@H]1O | 150 µM | 0.6 | 266 µM | 1 | 66 µM | 2 |  |  | 
CC(=O)O[C@@H]1[C@H](OC(C)=O)[C@@H](CN=[N+]=[N-])O[C@H]1n1cnc2c(N)nc(F)nc21 | 39 µM | 0.5 | 33 µM | 0.5 | 23 µM | 0.8 | 12 | 18 µM | 1.5 µM
C[S+]([O-])C[C@H]1O[C@@H](n2cnc3c(N)nc(Cl)nc32)[C@H](O)[C@@H]1O (some centres not stated) | > 260 µM | < 1 | > 260 µM | < 1 | 75 µM | 3 | 18 | 259 µM | 14 µM

SMILES | IC50 (Trypanosoma cruzi) | selectivity ratio [1] | IC50 (Leishmania donovani) | selectivity ratio [2] | IC50 [3] | selectivity ratio [4] | selectivity ratio [5] | IC50 (L6) | IC50 (Plasmodium falciparum)
CC(=O)O[C@@H]1[C@H](OC(C)=O)[C@@H](CN=[N+]=[N-])O[C@H]1n1cnc2c(N)nc(Cl)nc21 | 93 µM | 1 | 114 µM | 2 | 64 µM | 2 | 11 | 141 µM | 13 µM
CSC[C@H]1O[C@@H](n2cnc3c(N)nc(Cl)nc32)[C@H](OC(C)=O)[C@@H]1OC(C)=O | 161 µM | 6 | 39 µM | 1 | 31 µM | 7 | 18 | 216 µM | 12 µM
CNc1nc(I)nc2c1ncn2[C@@H]1O[C@H](CSC)[C@@H](O)[C@H]1O | 104 µM | 1 | 101 µM | 1 | 21 µM | 6 |  |  | 
CS(=O)(=O)C[C@H]1O[C@@H](n2cnc3c(N)nc(Cl)nc32)[C@H](O)[C@@H]1O | 156 µM | < 0.6 | > 275 µM | 1 | 126 µM | 1 | 6 | 156 µM | 25 µM
CSC[C@H]1O[C@@H](n2cnc3c(N)nc(F)nc32)[C@H](O)[C@@H]1O | 2.6 µM | 0.7 | 0.8 µM | 0.2 | 4.3 µM | 0.1 |  |  | 
CSC[C@H]1O[C@@H](n2cnc3c(N(C)N=O)nc(F)nc32)[C@H](O)[C@@H]1O | 129 µM | 0.6 | 190 µM | 0.9 | 56 µM | 2 |  |  | 
CS(=O)(=O)C[C@H]1O[C@@H](n2cnc3c(N)nc(F)nc32)[C@H](O)[C@@H]1O | 35 µM | 0.1 | 37 µM | 0.1 | 17 µM | 0.3 | 0.6 | 5 µM | 8 µM
CSC[C@H]1O[C@@H](n2cnc3c(N)nc(F)nc32)[C@H](OC(C)=O)[C@@H]1OC(C)=O | 15 µM | 0.8 | 18 µM | 1 | 26 µM | 0.6 | 5 | 15 µM | 2.8 µM
C[S+]([O-])C[C@H]1O[C@@H](n2cnc3c(N)nc(F)nc32)[C@H](O)[C@@H]1O (some centres not stated) | 74 µM | 0.4 | 33 µM | 0.2 | 34 µM | 0.4 | 2 | 13 µM | 5.8 µM
CSC[C@H]1O[C@@H](n2cnc3c(N)nc(N=[N+]=[N-])nc32)[C@H](O)[C@@H]1O | 144 µM | 0.8 | 288 µM | 2 | 51 µM | 5 |  |  | 
CNc1nc(C#N)nc2c1ncn2[C@@H]1O[C@H](CSC)[C@@H](O)[C@H]1O | 25 µM | 1 | 22 µM | 1 | 30 µM | 0.8 |  |  | 
CC(=O)O[C@@H]1[C@H](OC(C)=O)[C@@H](CS(C)(=O)=O)O[C@H]1n1cnc2c(N)nc(Cl)nc21 | > 200 µM | < 0.6 | > 200 µM | < 0.6 | 14 µM | 8 | 11 | 114 µM | 10 µM
CSC[C@H]1O[C@@H](n2cnc3c(N)nc(Cl)nc32)[C@H](O)[C@@H]1O | > 270 µM | 5 | 60 µM | < 1 | 203 µM | 1 |  |  | 
CSC[C@H]1O[C@@H](n2cnc3c(N)nc(NN)nc32)[C@H](O)[C@@H]1O | 157 µM | 1 | 173 µM | 1 | 149 µM | 1 |  |  | 
O=C(Cn1ccnc1[N+](=O)[O-])NCc1ccccc1 [BENZNIDAZOLE] | 1.64 µM |  |  |  |  |  |  | > 385 µM | 
CCN(CC)CCCC(C)Nc1ccnc2cc(Cl)ccc12 (configuration not stated) [CHLOROQUINE] |  |  |  |  |  |  |  | 91 µM | 
CCCCCCCCCCCCCCCCOP(=O)([O-])OCC[N+](C)(C)C [MILTEFOSINE] |  |  | 0.3 µM |  |  |  |  | 137 µM | 
